Experimental data: patent US20120270928A1, “MICRORNA COMPOUNDS AND METHODS FOR MODULATING MIR-21 ACTIVITY” (REGULUS THERAPEUTICS INC., priority 2011, published 2012)
“And” between values parts separate entries of the source, which are not always exact repeats. Equal entries are not always repeated.

How the values were obtained:
[1] = system: UUO model of kidney fibrosis; test: Unilateral ureteral obstruction (UUO) model of kidney fibrosis: kidney collagen 1A1 and collagen 3A1 expression by real-time PCR; assay type: in vivo, mice; details: UUO
Procedure: Unilateral ureteral obstruction (UUO) is a well-established experimental model of renal injury leading to interstitial fibrosis, and thus is used as an experimental model that is reflective of human kidney disease. UUO is induced by surgically ligating a single ureter. As fibrosis is characterized by an increase in collagen, the presence and extent of kidney fibrosis may be determined by measuring collagen content. Both collagen 1A1 (Col 1A1) and collagen 3A1 (Col 3A1) are measured to assess collagen content. Kidney fibrosis may be visualized by staining tissue samples with picro-sirius red to detect increases in collagen content. Kidney fibrosis may also be observed by measuring the amount of hydroxyproline, which is a major component of collagen, in a sample.
The cEt-containing anti-miR-21 compounds found to be active in the luciferase assay were tested in the UUO model of kidney fibrosis. 25919 comprising 2′-MOE and 2′-fluoro modifications is known to inhibit miR-21 activity in vivo and was included as a positive control. Groups of 8 animals each were treated as follows: UUO only, UUO with PBS, or UUO with anti-miR-21 compound. Relative to the day of the UUO procedure, PBS or anti-miR-21 compound was administered at days −3, −1, and +5. Anti-miR-21 compounds were administered at a dose of 20 mg/kg. As the anti-miR compounds were administered prior to the UUO procedure, this dosing regimen is considered a prophylactic treatment. At day 11, animals were sacrificed and kidney was isolated for measurement of collagen expression. Collagen expression was measured by real-time PCR and normalized first to GAPDH and then to the sham control animals.
The UUO study was repeated to confirm the activity of 25070. The anti-miR was administered subcutaneously at a dose of 20 mg/kg.
(§1) Control treatment groups included UUO only (sham) and UUO with PBS administered subcutaneously. An additional control group included UUO with Tween-MC/20 carrier perorally. 25070 administered subcutaneously at dose of 20 mg/kg at 5 days prior to, 2 days prior to, and 3 days after, the UUO procedure. Irbesartan was administered perorally on daily on days 0 through 7 following the UUO procedure. Animals were sacrificed on Day 10 following the UUO procedure. Kidney tissue was collected for measurement of collagen 1A1 and collagen 3A1 expression.
Compounds 25220 and 25221, as well as 25923, were tested in the UUO model for their effects on fibrosis. Groups of 8 animals each were treated as follows: sham surgery, UUO with PBS, UUO with 25220, UUO with 25221, or UUO with 25923. Relative to the day of the UUO procedure, PBS or anti-miR-21 compound was administered at days −5, −3, and +3. Anti-miR-21 compounds were administered at a dose of 20 mg/kg. As the anti-miR compounds were administered prior to the UUO procedure, this dosing regimen is considered a prophylactic treatment. At day 10, animals were sacrificed and kidney was isolated for measurement of collagen expression. Collagen expression was measured by real-time PCR and normalized to GAPDH.

[2] = system: UUO model of kidney fibrosis; test: UUO model: collagen area fraction of kidney tissue (picrosirius red histology); assay type: in vivo, mice; details: Table N, 25070 20 mg/kg s.c.
Procedure: as §1
The ‘collagen area fraction’ is measured histologically through quantitative image processing of the area of kidney tissue that is stained red by the picrosirius red stain; the percent detected as red is normalized by the area of kidney section.

[3] = system: ischemia reperfusion injury/nephrectomy (IR/Nx) model; test: Ischemia reperfusion injury/nephrectomy (IR/Nx) model: urinary albumin to creatinine ratio; assay type: in vivo, mouse; details: for geometric mean of the urinary albumin to creatinine ratio: 20 mg/kg subcutaneously on days 2, 3, 4, and 8, urine on day 9
Source text: An ischemia reperfusion injury/nephrectomy (IR/Nx) model is created in the mouse through temporary unilateral clamping of an artery in one kidney, which leads to tubule damage, inflammation, and fibrosis, followed by removal of the second kidney at a later timepoint. In this model, the acute kidney dysfunction phase is useful to test candidate agents for the treatment of acute kidney injury (i.e. up to about the first 5 days), and the later phases of kidney dysfunction are useful to model chronic fibrosis (i.e. after about the first 5 days).
Unilateral IR was induced for a period of 30 minutes. Treatment groups were as follows: sham IR procedure; IR with PBS administered subcutaneously; IR with mismatched control 25109 administered subcutaneously at a dose of 20 mg/kg; IR with anti-miR-21 compound 25070 administered subcutaneously at a dose of 20 mg/kg; and IR with anti-miR-21 compound 25923 administered subcutaneously at a dose of 20 mg/kg. PBS or anti-miR was administered on days 2, 3, 4, and 8 following IR. On day 8, the healthy kidney was removed by nephrectomy from each animal, and animals were sacrificed on day 9. Just prior to sacrifice, urine was collected by direct bladder puncture.
Urinary albumin to creatinine ratio was measured in the urine from each mouse. […] The geometric mean of the albumin to creatinine ratio in each group of mice was 16 μgAlb/mgCr (nephrectomy-only control), 127 μgAlb/mgCr (IR/Nx, PBS control), 140 μgAlb/mgCr (IR/Nx, 25109 control), 40 μgAlb/mgCr (IR/Nx, 25070), and 31 μgAlb/mgCr (IR/Nx, 25923). Blood urea nitrogen and serum creatinine levels were similar across all IR/Nx mice, and were elevated relative to nephrectomy-only control mice (data not shown).

[4] = Ex vivo liver homogenate stability assay (HPLC-TOF MS); details: 24 hours at 37° C.; for ex vivo (liver) N %↓: full-length compound; for ex vivo (liver) % Endo / ex vivo (liver) % N − 1: 5 μM oligonucleotide in liver homogenate; for ex vivo (liver) % N − 1: compound lacking the 3′-terminal nucleoside
[5] = In vivo stability of compound in kidney tissue after administration to mice; details: kidney tissue after administration; for in vivo (kidney) N − 1 (%): compound lacking the 3′-terminal nucleoside; for in vivo (kidney) N (%): full-length compound
[6] = system: miR-21; test: miR-21 luciferase sensor assay in Hela cells; assay type: cell-based
Procedure: The compounds were assessed for miR-21 inhibitory activity in a luciferase assay. A microRNA luciferase sensor construct was engineered using pGL3-MCS2 (Promega). The construct was introduced into Hela cells to test the ability of anti-miR compounds to inhibit activity of miR-21. In this assay, miR-21 present in the Hela cells binds to its cognate site(s) in the luciferase sensor construct, and suppresses luciferase expression. When the appropriate anti-miR is introduced into the cells, it binds to miR-21 and relieves suppression of luciferase expression. Thus, in this assay anti-miRs that are effective inhibitors of miR-21 expression will cause an increase in luciferase expression.
Hela cells (ATCC), stably transfected with a luciferase construct engineered to contain a sequence complementary of miR-21, were seeded in T-170 flasks (BD Falcon) at 3.5*10^6 cells/flask. Hela cells were grown in Dulbecco's Modified Eagle Medium with High Glucose (Invitrogen).
Each flask of Hela cells was transfected with 0.5 ug of a phRL sensor plasmid (Promega) expressing Renilla to be used in normalization. Hela cells were transfected using 20 ul Lipofectamine 2000/flask (Invitrogen). After 4 hours of transfection, cells were washed with PBS and trypsinized Hela cells were plated at 40 k/well in 24 well plates (BD Falcon) and left overnight.
Hela cells were transfected with anti-miRs using Lipofectin (Invitrogen) at 2.5 ul Lipofectin/100 nM ASO/ml Opti-MEM I Reduced Serum Medium (Invitrogen) for 4 hours. After ASO transfection, Hela cells were refed with Dulbecco's Modified Eagle Medium with High Glucose (Invitrogen).
Hela cells are passively lysed and luciferase activity measured using the Dual-Luciferase Reporter Assay System (Promega).
The luciferase assay was performed to test the ability of anti-miRs with the nucleoside patterns described herein to inhibit the activity of miR-21. Results were compared to a ‘mock’ treatment, in which cells received no anti-miR treatment. The experiment was repeated and results of two experimental replicates are shown in the following Table B, as the luciferase value normalized to beta-galactosidase activity.
The luciferase assay was performed as described herein to test the ability of anti-miRs in Table F to inhibit the activity of miR-21. Results were compared to a ‘mock’ treatment, in which cells received no anti-miR treatment. The experiment was repeated and results of two experimental replicates are shown in the following Table D, as fold change in luciferase value relative to the mock treatment.

[7] = Table M, individual animals, 25070 20 mg/kg s.c. 5 and 2 days prior to and 3 days after UUO, irbesartan PO daily days 0-7, sacrifice Day 10, 20 mg/kg
[8] = 5 μM oligonucleotide in liver homogenate (50 mg tissue per ml)
[9] = 20 mg/kg at days -5, -3, +3, kidney at day 10

In the case of CCCCC1=NC2(CCCC2)C(=O)N1Cc1ccc(-c2ccccc2-c2nnn[nH]2)cc1 [irbesartan, reference compound], the “Collagen 3A1 (Normalized Expression) Mean” value ([1]; Table M, group mean, 25070 20 mg/kg s.c., irbesartan PO daily days 0-7, Day 10, UUO-PBS 93.2, Tween/MC vehicle 132.4) is reported as 73.2, the “Collagen 1A1 (Normalized Expression) Mean” value ([1]; Table M, group mean, 25070 20 mg/kg s.c., irbesartan PO daily days 0-7, Day 10, UUO-PBS 129.6, Tween/MC vehicle 150.2) is reported as 117.8 and the “Collagen 1A1 (Normalized Expression)” value [1, 7] is reported as 125.4 and 86.7 and 106.6 and 110.7 and 198.3 and 92.2 and 118.1 and 104.1. For the same compound, the “Collagen 3A1 (Normalized Expression)” value [1, 7] was 65.5 and 63.8 and 63.2 and 50.8 and 63.6 and 82.8 and 122.5, the “reduction in Col3a1 expression (significance)” value ([1]; comparison with irbesartan, sacrifice Day 10) was “statistically significant reductions” and the “reduction in Col1A1 expression relative to saline-treated animals (significance)” value ([1]; comparison with irbesartan, sacrifice Day 10, p<0.05 by one-way ANOVA) was “did not yield a statistically significant reduction”. For the same compound, the “Collagen Area Fraction (%) Mean” value ([2]; group mean, irbesartan PO, Day 10, UUO-PBS 11.1, Tween/MC vehicle 8.0) was 8.0% and the “Collagen Area Fraction (%)” value ([2]; individual animals, irbesartan PO daily days 0-7, Day 10, picrosirius red, 20 mg/kg) was 6.105% and 7.481% and 15.877% and 7.914% and 6.614% and 5.706% and 7.798% and 6.154%.
For “AEASATCSTGTCSTCAUSAATASAAE [Compound 25109, reference compound]”, the “geometric mean of the urinary albumin to creatinine ratio” value [3] was 140 μgAlb/mgCr.
In the case of “AECSATCSAGTCSTGAUSAAGCSTAS (antisense ACATCAGTCTGATAAGCTA; cEt and 2'-MOE nucleosides) [Compound 25923]”, the “compound lacking the 3′-terminal nucleoside” value [4, 8] is reported as “about 18%”, the “compound present as the full-length compound” value [4, 8] is reported as “About 68%” and the “ex vivo (liver) N %↓” value [4, 8] is reported as 17%. The “ex vivo (liver) % Endo” value [4] was 2-3%, the “ex vivo (liver) % N − 1” value [4] was 13% and the “in vivo (kidney) N − 1 (%)” value [5] was 14 ± 5%. The “in vivo (kidney) N (%)” value [5] was 58 ± 3%.
For “AECSATCSAGTCSTGAUSAAGCSTAS (antisense ACATCAGTCTGATAAGCTA; cEt and 2'-MOE nucleosides, code letters not given here, further chemistry not given here) [Compound 25923, variation of 25070: 3′-terminal nucleoside is a cEt nucleoside rather than 2′-MOE nucleoside]”, the “inhibition of miR-21 activity in the luciferase assay (in words)” value ([6]; Hela cells) was “inhibition of miR-21 in a dose-dependent manner”, the “fold change in luciferase value relative to the mock treatment” value ([6]; concentration of anti-miR compound 0.2 (unit not given)) was 1.06 fold change and the “fold change in luciferase value relative to the mock treatment” value ([6]; concentration of anti-miR compound 0.6 (unit not given)) was 1.01 fold change. The “fold change in luciferase value relative to the mock treatment” value ([6]; concentration of anti-miR compound 1.9 (unit not given)) was 1.10 fold change, the “fold change in luciferase value relative to the mock treatment” value ([6]; concentration of anti-miR compound 5.6 (unit not given)) was 5.18 fold change and the “fold change in luciferase value relative to the mock treatment” value ([6]; concentration of anti-miR compound 16.7 (unit not given)) was 11.34 fold change. For the same compound, the “fold change in luciferase value relative to the mock treatment” value ([6]; concentration of anti-miR compound 50.0 (unit not given)) was 10.81 fold change, the “collagen 1A1 expression (FIG. 2A, in words)” value [1, 9] was “reduced collagen 1A1 and collagen 3A1 expression by a stastically significant amount” and the “collagen 3A1 expression (FIG. 2B, in words)” value [1, 9] was “reduced collagen 1A1 and collagen 3A1 expression by a stastically significant amount”. The “reduction in urinary albumin to creatinine ratio (significance)” value ([3]; 20 mg/kg subcutaneously on days 2, 3, 4, and 8) was “statistically significant reductions” and the “geometric mean of the urinary albumin to creatinine ratio” value [3] was 31 μgAlb/mgCr.
In the case of “AECSATCSAGTCSTGAUSAAGCSUsAS (ACATCAGTCTGATAAGCTA; sugar and backbone modifications) [Compound 25221]”, the “ex vivo (liver) N %↓” value [4, 8] is reported as 3%, the “ex vivo (liver) % Endo” value [4] is reported as 3% and the “ex vivo (liver) % N − 1” value [4] is reported as 0%. For the same compound, the “in vivo (kidney) N − 1 (%)” value [5] was 4 ± 1% and the “in vivo (kidney) N (%)” value [5] was 76 ± 4%.
For “AECSATCSASGTCSUSGAUSASAGCSUsAE (ACATCAGTCTGATAAGCTA; sugar and backbone modifications) [Compound 25220]”, the “ex vivo (liver) N %↓” value [4, 8] was 3%, the “ex vivo (liver) % Endo” value [4] was 3% and the “ex vivo (liver) % N − 1” value [4] was 0%. The “in vivo (kidney) N − 1 (%)” value [5] was 16 ± 6% and the “in vivo (kidney) N (%)” value [5] was 67 ± 16%.
